From ChEMBL document CHEMBL4706771, “Discovery of Orally Bioavailable Ligand Efficient Quinazolindiones as Potent and Selective Tankyrases Inhibitors” (ACS Med Chem Lett, 2021)
Activity calls are given as the source filed them. No cut-off for these calls is given here.

Assays:
NCI-H292 [1] = assay: Antitumor activity against human NCI-H292 cells xenografted in BALB/c mouse assessed as reduction in tumor growth at 3 mg/kg, po administered for 14 days and measured on day 14; type: functional, organism-based; conditions: time 14.0 day
[2] = Mutagenicity in Escherichia coli WP2uvrA by ames test; type: toxicity
[3] = Dose normalised AUC in Sprague-Dawley rat at 8.6 mg/kg, po; type: ADME, organism-based; conditions: in vivo
NCI-H292 [4] = assay: Antitumor activity against human NCI-H292 cells xenografted in BALB/c mouse assessed as maximal potency administered orally for 14 days and measured on day 14; type: functional; conditions: time 14 day
[5] = Half life in C57 mouse at 3 mg/kg, po or 1 mg/kg, iv; type: ADME, organism-based; conditions: in vivo
[6] = Clearance in Sprague-Dawley rat at 8.6 mg/kg, po or 0.5 mg/kg, iv; type: ADME, organism-based; conditions: in vivo
[7] = Clearance in C57 mouse at 3 mg/kg, po or 1 mg/kg, iv; type: ADME, organism-based; conditions: in vivo
NCI-H292 [8] = assay: Antitumor activity against human NCI-H292 cells xenografted in BALB/c mouse assessed as reduction in tumor volume at 10 to 30 mg/kg, po administered for 14 days and measured on day 14; type: functional, organism-based; conditions: dose 10-30 mg/kg, time 14.0 day
[9] = Oral bioavailability in C57 mouse at 3 mg/kg; type: ADME, organism-based; conditions: in vivo
Cytochrome P450 3A4 = Cytochrome P450 3A4 (Homo sapiens, UniProt P08684); assay: Inhibition of CYP3A4 (unknown origin); type: ADME
Cytochrome P450 3A4, sequence (P08684 whole entry): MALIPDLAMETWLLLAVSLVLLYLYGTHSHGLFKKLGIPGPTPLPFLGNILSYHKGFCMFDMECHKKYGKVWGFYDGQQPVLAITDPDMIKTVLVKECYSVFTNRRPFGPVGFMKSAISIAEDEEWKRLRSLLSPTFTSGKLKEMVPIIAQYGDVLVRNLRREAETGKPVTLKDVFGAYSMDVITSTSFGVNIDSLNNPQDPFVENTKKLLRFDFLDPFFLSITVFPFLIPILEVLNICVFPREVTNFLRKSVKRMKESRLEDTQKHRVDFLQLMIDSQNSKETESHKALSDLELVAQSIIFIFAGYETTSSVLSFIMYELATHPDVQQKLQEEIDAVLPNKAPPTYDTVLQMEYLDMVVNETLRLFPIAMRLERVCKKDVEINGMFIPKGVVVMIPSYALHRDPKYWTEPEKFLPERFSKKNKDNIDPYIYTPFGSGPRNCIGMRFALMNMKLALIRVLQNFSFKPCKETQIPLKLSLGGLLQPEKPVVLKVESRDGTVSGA

[10] = Toxicity in Wistar Han rat assessed as decrease in skin elasticity at >= 100 mg/kg, po administered for 7 days and measured on day 7; type: organism-based; conditions: in vivo, 168 h, time 7 day
[11] = Toxicity in Wistar Han rat assessed as tolerability at >= 100 mg/kg, po administered for 7 days and measured on day 7; type: organism-based; conditions: in vivo, 168 h, time 7 day
[12] = Toxicity in Wistar Han rat assessed as reduction in body weight at 10 mg/kg, po administered for 7 days and measured on day 7; type: organism-based; design: scale not given: the % may be the effect or the level left; conditions: in vivo, 168 h, time 7 day
[13] = Toxicity in BALB/c mouse xenografted with human NCI-H292 cells assessed as tolerability at 10 to 30 mg/kg, po for 14 days and measured on day 14; type: organism-based; conditions: in vivo, 336 h, dose 10-30 mg/kg, time 14 day
[14] = Dose normalised AUC in Beagle dog at 2 mg/kg, po; type: ADME, organism-based, Canis lupus familiaris; conditions: in vivo
[15] = Toxicity in Wistar Han rat assessed as decrease in activity at >= 100 mg/kg, po administered for 7 days and measured on day 7; type: organism-based; conditions: in vivo, 168 h, time 7 day
[16] = Oral bioavailability in Sprague-Dawley rat at 8.6 mg/kg; type: ADME, organism-based; conditions: in vivo
[17] = Toxicity in Wistar Han rat assessed as tolerability at 10 mg/kg, po administered for 7 days and measured on day 7; type: organism-based; conditions: in vivo, 168 h, time 7 day
[18] = Toxicity in Wistar Han rat assessed as abnormal soft fecal consistency at >= 100 mg/kg, po administered for 7 days and measured on day 7; type: organism-based; conditions: in vivo, 168 h, time 7 day

With `Cc1cccc2c1c(=O)n(C[C@H]1CC[C@H](C(=O)O)CC1)c(=O)n2Cc1cccc(C(F)(F)F)c1C#N` as the compound, how does the Activity (NCI-H292 [1]) read?
The Activity was “Active”.

What about the Activity [2] of the same compound?
Its Activity is “Non-Toxic”.

What about the AUC/dose [3] of the same compound?
Its AUC/dose is 6651 ng·h/mL.

What about the ECmax (NCI-H292 [4]) of the same compound?
Its ECmax is 10 mg/kg.

And the half-life [5]?
The half-life was 10.9 h.

And the clearance [6]?
The clearance was 3.48 mL/min/kg.

What about the clearance [7] of the same compound?
Its clearance is 1.44 mL/min/kg.

What about the Activity (NCI-H292 [8]) of the same compound?
Its Activity is “Active”.

And the bioavailability [9]?
The bioavailability was 37.1%.

And the IC50 (Cytochrome P450 3A4)?
The IC50 was over 100 µM.

And the Activity [10]?
Its Activity is “Toxic”.

And the Activity [11]?
The Activity was “Toxic”.

And the Activity [12]?
Its Activity is 8%.

What about the Activity [13] of the same compound?
Its Activity is “Non-Toxic”.

What about the AUC/dose [14] of the same compound?
Its AUC/dose is 2937 ng·h/mL.

What about the Activity [15] of the same compound?
The Activity was “Toxic”.

What about the bioavailability [16] of the same compound?
The bioavailability was 133%.

What about the Activity [17] of the same compound?
The Activity was “Non-Toxic”.

And the Activity [18]?
The Activity was “Toxic”.
